Data reported in PubChem BioAssay AID256 (DTP/NCI, 2004).
Inconclusive results and toxic doses are left out. How the source made its calls: active means survival T/C of 150% or more; inactive means T/C below 125% in these data.

System: CD2F1 mice, L1210 leukemia ip, survival T/C
Experiment: NCI In Vivo Anticancer Drug Screen. Data for tumor model L1210 Leukemia (intraperitoneal) in CD2F1 (CDF1) mice
Settings: higher = longer survival
Summary of the method: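 Each value reflects a quotient of treated over vehicle control outcomes in mice with a transplanted tumor.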

[1] = endpoint: mean survival time, dose: 12.5 mg/kg/injection, schedule: Q01DX009 (ip), vehicle: saline with Tween-80
[2] = endpoint: mean survival time, dose: 25.0 mg/kg/injection, schedule: Q01DX009 (ip), vehicle: saline with Tween-80
[3] = endpoint: mean survival time, dose: 200.0 mg/kg/injection, schedule: Q04DX003 (ip), vehicle: saline with Tween-80
[4] = endpoint: mean survival time, dose: 100.0 mg/kg/injection, schedule: Q01DX001 (ip), vehicle: saline with Tween-80
[5] = endpoint: mean survival time, dose: 400.0 mg/kg/injection, schedule: Q01DX001 (ip), vehicle: saline with Tween-80
[6] = endpoint: mean survival time, dose: 100.0 mg/kg/injection, schedule: Q04DX003 (ip), vehicle: saline
[7] = endpoint: mean survival time, dose: 200.0 mg/kg/injection, schedule: Q04DX003 (ip), vehicle: saline
[8] = endpoint: mean survival time, dose: 400.0 mg/kg/injection, schedule: Q04DX003 (ip), vehicle: saline
[9] = endpoint: mean survival time, dose: 50.0 mg/kg/injection, schedule: Q01DX009 (ip), vehicle: saline with Tween-80
[10] = endpoint: mean survival time, dose: 100.0 mg/kg/injection, schedule: Q01DX009 (ip), vehicle: saline with Tween-80
[11] = endpoint: mean survival time, dose: 200.0 mg/kg/injection, schedule: Q01DX009 (ip), vehicle: saline with Tween-80
[12] = endpoint: mean survival time, dose: 100.0 mg/kg/injection, schedule: Q04DX003 (ip), vehicle: saline with Tween-80
[13] = endpoint: mean survival time, dose: 400.0 mg/kg/injection, schedule: Q01DX009 (ip), vehicle: saline with Tween-80
[14] = endpoint: mean survival time, dose: 400.0 mg/kg/injection, schedule: Q04DX003 (ip), vehicle: saline with Tween-80
[15] = endpoint: mean survival time, dose: 200.0 mg/kg/injection, schedule: Q01DX001 (ip), vehicle: saline with Tween-80

Measured: T/C

O=S(=O)(O)c1cccc2ncccc12
inactive: endpoint: mean survival time, dose: 100.0 mg/kg/injection, schedule: Q01DX001 (ip), vehicle: Klucel (hydroxypropylcellulose) (HPC) 113 % of control | endpoint: mean survival time, dose: 200.0 mg/kg/injection, schedule: Q01DX001 (ip), vehicle: Klucel (hydroxypropylcellulose) (HPC) 92 % of control | endpoint: mean survival time, dose: 400.0 mg/kg/injection, schedule: Q01DX001 (ip), vehicle: Klucel (hydroxypropylcellulose) (HPC) 95 % of control

C[N+]1(C)CCC2=CC3C=CC2C1C=C3 (stereo unspecified)
inactive: endpoint: median survival time, dose: 25.0 mg/kg/injection, schedule: Q04DX002 (ip), vehicle: saline with Tween-80 100 % of control | endpoint: median survival time, dose: 50.0 mg/kg/injection, schedule: Q04DX002 (ip), vehicle: saline with Tween-80 100 % of control

CCCCCCCCCCCCCCCC[n+]1cccc(C(=O)NCO)c1
inactive: endpoint: mean survival time, dose: 6.25 mg/kg/injection, schedule: Q01DX009 (ip), vehicle: saline with Tween-80 102 % of control | [1] 95 % of control | [2] 95 % of control | endpoint: mean survival time, dose: 50.0 mg/kg/injection, schedule: Q04DX003 (ip), vehicle: saline with Tween-80 103 % of control | [3] 103 % of control

O=C1C=CC(c2ccccc2)(c2ccccc2)C=C1
inactive: [4] 93 % of control | [5] 86 % of control

CSc1ccccc1C1=CCCCC1
inactive: [6] 95 % of control | [7] 93 % of control | [8] 98 % of control

CC(=O)OC1(c2ccccc2)OC(=O)c2ccccc21 (stereo unspecified)
inactive: endpoint: mean survival time, dose: 100.0 mg/kg/injection, schedule: Q04DX002 (ip), vehicle: saline with Tween-80 97 % of control | endpoint: mean survival time, dose: 200.0 mg/kg/injection, schedule: Q04DX002 (ip), vehicle: saline with Tween-80 91 % of control | endpoint: mean survival time, dose: 400.0 mg/kg/injection, schedule: Q04DX002 (ip), vehicle: saline with Tween-80 108 % of control

COc1cc(OC)c(NC(=O)Nc2ccc(SCC(=O)O)cc2)cc1Cl
inactive: [9] 93 % of control | [10] 89 % of control | [11] 86 % of control

Cc1ccc2nc(-c3ccc4nc(-c5ccc(N)cc5)sc4c3)sc2c1S(=O)(=O)O
inactive: [6] 109 % of control | [7] 107 % of control | [8] 112 % of control

CN(C)CCC(=O)c1ccccc1
inactive: endpoint: mean survival time, dose: 25.0 mg/kg/injection, schedule: Q01DX009 (ip), vehicle: saline 106 % of control | endpoint: mean survival time, dose: 50.0 mg/kg/injection, schedule: Q01DX009 (ip), vehicle: saline 95 % of control | endpoint: mean survival time, dose: 100.0 mg/kg/injection, schedule: Q01DX009 (ip), vehicle: saline 106 % of control

NCCCOCCOCCOCCOCCCN
inactive: endpoint: mean survival time, dose: 25.0 mg/kg/injection, schedule: Q04DX002 (ip), vehicle: saline 105 % of control | endpoint: mean survival time, dose: 50.0 mg/kg/injection, schedule: Q04DX002 (ip), vehicle: saline 101 % of control | endpoint: mean survival time, dose: 100.0 mg/kg/injection, schedule: Q01DX001 (ip), vehicle: saline sonified 97 % of control | endpoint: mean survival time, dose: 100.0 mg/kg/injection, schedule: Q04DX002 (ip), vehicle: saline 101 % of control

COC(C(N)=O)(c1ccccc1)C(F)(F)F (stereo unspecified)
inactive: [10] 101 % of control | [12] 102 % of control | [11] 105 % of control | [3] 100 % of control | [13] 94 % of control | [14] 89 % of control

Cc1cc(NC(=O)SCCOC(=O)COc2ccc(Cl)cc2)ccc1Cl
inactive: [12] 91 % of control | [3] 91 % of control | [14] 89 % of control

CN(Cc1ccccc1)CC1(CO)CC=CCC1 (stereo unspecified)
inactive: endpoint: mean survival time, dose: 75.0 mg/kg/injection, schedule: Q01DX001 (ip), vehicle: saline 97 % of control | endpoint: mean survival time, dose: 150.0 mg/kg/injection, schedule: Q01DX001 (ip), vehicle: saline 100 % of control

Cc1cccc(S(=O)(=O)N(C)C)c1
inactive: [10] 95 % of control | [12] 94 % of control | [11] 95 % of control | [3] 92 % of control | [13] 92 % of control | [14] 96 % of control

CC1=C(c2ccccc2)C(c2ccccc2)C(C)C1=O (stereo unspecified)
inactive: [10] 100 % of control | [11] 98 % of control | [13] 87 % of control

Cc1ccc(NC(=O)N(C)N=O)cc1
inactive: endpoint: mean survival time, dose: 89.0 mg/kg/injection, schedule: Q01DX001 (ip), vehicle: other 89 % of control | endpoint: mean survival time, dose: 133.0 mg/kg/injection, schedule: Q01DX001 (ip), vehicle: other 87 % of control | endpoint: mean survival time, dose: 200.0 mg/kg/injection, schedule: Q01DX001 (ip), vehicle: other 89 % of control | endpoint: mean survival time, dose: 300.0 mg/kg/injection, schedule: Q01DX001 (ip), vehicle: other 93 % of control

CCOC(=O)Cc1cnc(SC)nc1Nc1ccc(Br)cc1
inactive: [4] 89 % of control | [15] 89 % of control | [5] 100 % of control

CCNc1nc(NCC)nc(SC)n1
inactive: [9] 100 % of control | [10] 89 % of control | [12] 100 % of control | [3] 97 % of control

OCC1OC(n2ccc3c(NO)ncnc32)C(O)C1O (stereo unspecified)
inactive: endpoint: mean survival time, dose: 5.0 mg/kg/injection, schedule: Q01DX001 (ip), vehicle: saline 111 % of control | endpoint: mean survival time, dose: 10.0 mg/kg/injection, schedule: Q01DX001 (ip), vehicle: saline 118 % of control

CN(C)C(=S)S
inactive: endpoint: mean survival time, dose: 50.0 mg/kg/injection, schedule: Q01DX001 (ip), vehicle: carboxymethylcellulose (CMC) 93 % of control | endpoint: mean survival time, dose: 100.0 mg/kg/injection, schedule: Q01DX001 (ip), vehicle: carboxymethylcellulose (CMC) 89 % of control | [12] 94 % of control | endpoint: mean survival time, dose: 200.0 mg/kg/injection, schedule: Q01DX001 (ip), vehicle: carboxymethylcellulose (CMC) 104 % of control | [3] 105 % of control | endpoint: mean survival time, dose: 400.0 mg/kg/injection, schedule: Q01DX001 (ip), vehicle: carboxymethylcellulose (CMC) 106 % of control | [14] 100 % of control

O=[N+]([O-])c1cccc(/C=C/C=C/c2cccc(S(=O)(=O)F)c2)c1
inactive: [10] 100 % of control | [12] 93 % of control | [11] 93 % of control | [3] 96 % of control | [13] 95 % of control | [14] 90 % of control

Cc1ccc(S(=O)(=O)OCC2OC3(COS(=O)(=O)c4ccc(C)cc4)OC(C)(C)OC3C2O)cc1 (stereo unspecified)
inactive: [12] 93 % of control | [3] 101 % of control

OC12CC(C(F)(F)F)(C(F)(F)F)OC1(O)CC(C(F)(F)F)(C(F)(F)F)O2 (stereo unspecified)
inactive: [9] 95 % of control | [10] 95 % of control | [11] 95 % of control

C=C(c1ccc(OC)c(OC)c1)c1nccc2cc(OC)c(OC)cc12
inactive: endpoint: median survival time, dose: 50.0 mg/kg/injection, schedule: Q01DX009 (ip), vehicle: Klucel (hydroxypropylcellulose) (HPC) 101 % of control | endpoint: median survival time, dose: 100.0 mg/kg/injection, schedule: Q01DX009 (ip), vehicle: Klucel (hydroxypropylcellulose) (HPC) 89 % of control | endpoint: median survival time, dose: 200.0 mg/kg/injection, schedule: Q01DX009 (ip), vehicle: Klucel (hydroxypropylcellulose) (HPC) 95 % of control | endpoint: median survival time, dose: 400.0 mg/kg/injection, schedule: Q01DX009 (ip), vehicle: Klucel (hydroxypropylcellulose) (HPC) 97 % of control | endpoint: median survival time, dose: 800.0 mg/kg/injection, schedule: Q01DX009 (ip), vehicle: Klucel (hydroxypropylcellulose) (HPC) 108 % of control

COc1ccc(/C=C/c2ccccc2)cc1
inactive: [4] 95 % of control | [15] 88 % of control | [5] 86 % of control

O=C(NC1CCCCC1)OCC#CC#CCOC(=O)NC1CCCCC1
inactive: endpoint: mean survival time, dose: 100.0 mg/kg/injection, schedule: Q04DX003 (ip), vehicle: Klucel (hydroxypropylcellulose) (HPC) 94 % of control | endpoint: mean survival time, dose: 200.0 mg/kg/injection, schedule: Q04DX003 (ip), vehicle: Klucel (hydroxypropylcellulose) (HPC) 96 % of control | endpoint: mean survival time, dose: 400.0 mg/kg/injection, schedule: Q04DX003 (ip), vehicle: Klucel (hydroxypropylcellulose) (HPC) 100 % of control

Cc1cc(=O)cc(C)n1C
inactive: [12] 98 % of control | [3] 97 % of control | [14] 94 % of control

Nc1cc2c(cc1Br)-c1ccccc1C2Br (stereo unspecified)
inactive: [12] 94 % of control | [14] 92 % of control

CCC1(CC)CCC(Br)C(Br)C1 (stereo unspecified)
inactive: [10] 94 % of control | [12] 95 % of control | [11] 94 % of control | [3] 98 % of control | [13] 89 % of control | [14] 93 % of control

Brc1ccc(Sc2ccccc2)cc1
inactive: [10] 98 % of control | [11] 93 % of control | [13] 96 % of control

CCOC(=O)c1c(O)c2c([nH]c1=O)CCc1ccccc1-2
inactive: [1] 98 % of control | endpoint: mean survival time, dose: 25.0 mg/kg/injection, schedule: Q01DX001 (ip), vehicle: saline with Tween-80 98 % of control | [2] 95 % of control | endpoint: mean survival time, dose: 50.0 mg/kg/injection, schedule: Q01DX001 (ip), vehicle: saline with Tween-80 93 % of control | [9] 95 % of control | [4] 103 % of control

CCOC(=O)C(=O)Cc1cc(=O)cc(C)o1
inactive: [10] 95 % of control | [11] 92 % of control | [13] 93 % of control
